Tests used:
control HEK293 cells = test: HTRF IP1 assay in control HEK293 cells; type: cell-based; conditions: IP assay
From the text: Human and rat Mas receptors were either transiently or stably expressed in HEK293 cells. For transient transfections, human or rat Mas in pHM6 vector were transfected into HEK293 cells using Lipofectamine® (Invitrogen #18324-012). HEK293 cells transfected with empty pHM6 vector were used as a control. For generation of stable cell lines, cDNA expression plasmids encoding human or rat Mas genes and the neo^r gene were transfected into HEK293 cells (ATCC# CRL-1573) using Lipofectamine® (Invitrogen) according to the manufacturer's instructions. Stable receptor expressing pools were then generated over 3 weeks by standard techniques in the presence of 500 μg/mL Geneticin® (Gibco). Individual receptor stable pools were dilution cloned using standard techniques and clones were comparatively evaluated in inositol phosphate accumulation assays. Preferred clones were banked and cultured as needed. HEK293 cells were used as controls. The 384 well IP-One HTRF® Assay (Cisbio #62P1APEJ) was performed as described by the manufacturer's protocol. Cells were plated in at 100,000 cells per well in 15 μL DMEM (Gibco #11960) and incubated in a CO2 incubator at 37° C. for 2 h. […] IP1 levels in each well were calculated according to the standard curves on each plate. […]

human Mas receptor = biological target: T1, human Mas receptor (Homo sapiens, UniProt P04201); test: Ca2+ measurements by FLIPR assay, HEK293 cells stably expressing human Mas receptors; type: cell-based; conditions: HEK293 cells stably expressing the human Mas receptor
T1 construct: expressed in transfected cells; host or cells: HEK293 (ATCC CRL-1573)
T1 sequence (P04201 1-325): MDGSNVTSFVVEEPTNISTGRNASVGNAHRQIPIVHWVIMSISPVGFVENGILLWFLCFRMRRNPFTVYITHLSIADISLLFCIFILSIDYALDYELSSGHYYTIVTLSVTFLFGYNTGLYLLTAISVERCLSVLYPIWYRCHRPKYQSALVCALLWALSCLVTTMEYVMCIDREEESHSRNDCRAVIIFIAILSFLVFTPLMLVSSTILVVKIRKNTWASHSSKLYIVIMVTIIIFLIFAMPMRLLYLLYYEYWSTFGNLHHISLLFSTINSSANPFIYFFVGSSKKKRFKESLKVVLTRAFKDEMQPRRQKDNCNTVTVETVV
Protocol: HEK293 cells stably expressing human Mas receptors were monitored for changes in intracellular Ca^2+ using a FLIPR-384 (Molecular Devices, Sunnyvale, Calif.). Cells were seeded into black-walled clear-base 384-well plates at a density of 2×10^4 cells per well and incubated with Hank's Balanced Salt Solution (HBSS) containing 20 mM HEPES pH 7.4, 2 μM Calcium 3 dye (Molecular Devices Corporation, Sunnyvale, Calif.) and 2.5 mM probenecid at 37° C. for 60 min. Cells were washed with HBSS containing 20 mM HEPES, pH 7.4 and 2.5 mM probenecid and the plates were then placed into the FLIPR instrument to monitor cell fluorescence before and after the addition of the agonists at different concentrations.

[1] = Mean arterial blood pressure in anesthetized rats (Example 4); type: in vivo, rat; conditions: low, medium and high dose i.v.; 25 min after starting dosing
Protocol: Adult rats were anesthetized with sodium pentobarbital (50 mg/kg i.p.) and placed in the supine position on a surgery frame with a heating pad (37° C.) beneath. Rats were tracheostomized and ventilated with a SAR-830 small-animal ventilator (Model 683, Harvard Apparatus) to provide room air at a tidal volume of 2.5 mL/stroke and at a rate of 70 stroke/min. Polyethylene catheters were placed in the right internal carotid artery and the external jugular vein for measurement of mean arterial blood pressure and infusion of drug or vehicle, respectively.
Animals were randomly divided into the following 4 groups: (1-3) low, medium, and high doses of Compound 170 administered by continuous i.v. infusion starting 30 min before coronary artery ligation (n=6 per dose), and (4) 20% HPBCD (vehicle, hydroxypropyl-β-cyclodextrin) administered by continuous i.v. infusion beginning 30 min before coronary artery ligation (n=6). All the rat hearts listed above were used for calculation of myocardial infarct size (see below). Mean arterial blood pressure was measured after stabilization and just prior to drug infusion (baseline) and again following 25 min of drug or vehicle infusion, before coronary artery ligation. […]

Male Sprague-Dawley rats = test: Left kidney artery ischemia reperfusion injury model; type: in vivo, rat
Protocol: Rats were anesthetized with pentobarbital (70 mg/kg). Normal body temperature was maintained by placing the animals on heating pads until recovery from anesthesia. Following a midline abdominal incision, the left renal pedicle was localized and the renal artery and vein were dissected. An atraumatic microvascular clamp was placed, and the left renal artery was occluded for 45 minutes. After inspection for signs of ischemia, the wound was covered with PBS soaked cotton. After release of the clamp, restoration of blood-flow was inspected visually and the wound was closed with surgical staples and the animal was allowed to recover. 24 hours following the end of ischemia blood was collected and markers of kidney function, creatinine and blood urea nitrogen (BUN) were measured.
15 minutes prior to renal artery occlusion either vehicle (20% hydroxypropyl-β-cyclodextrin) or a loading dose of 6.26 mg/kg Mas inverse agonist (Compound 170) was administered i.v. followed by a i.v. maintenance dose of 1.64 mg/kg/hr lasting for 2 hours following removal of the renal artery clamp. A renoprotective positive control peptide, Atrial natriuretic peptide (ANP, 0.2 μg/kg/min), was administered by continuous i.v. infusion starting 15 minutes prior to renal artery occlusion and lasting for 2 hours following removal of the renal artery clamp, see FIG. 43 for protocol.

[2] = 6.26 mg/kg loading + 1.64 mg/kg/hr i.v., 45 minutes occlusion, blood 24 hours after ischemia

Structure (SMILES)	effects in control HEK293 cells (control HEK293 cells)	intracellular Ca2+ (human Mas receptor)	mean arterial blood pressure (MAP) compared to vehicle treatment [1]	kidney function as measured by blood creatinine (Male Sprague-Dawley rats; [2])	kidney function as measured by blood urea nitrogen (BUN) (Male Sprague-Dawley rats; [2])	degree of renal protection (Male Sprague-Dawley rats; compared with ANP 0.2 μg/kg/min)
COc1cc([N+](=O)[O-])ccc1S(=O)(=O)N1CC(CN2CCN(c3ccccn3)CC2)C(c2cccc(F)c2)C1 (stereo not drawn) [AR234960]	There were detected effects	significant increase	–	–	–	–
NC(=O)[C@H](CO)NCc1ccc(C(=O)Nc2ccc(Cl)cc2N2CCN(CCC(F)(F)F)CC2)c(F)c1F [Compound 170, (S)-4-((1-Amino-3-hydroxy-1-oxopropan-2-ylamino)methyl)-N-(4-chloro-2-(4-(3,3,3-trifluoropropyl)piperazin-1-yl)phenyl)-2,3-difluorobenzamide]	–	–	no significant effect	improves kidney function	improves kidney function	at the same activity compared to ANP
